Results published in patent publication US20120184591A1, “METHODS FOR TREATING PROSTATITIS” (WATSON PHARMACEUTICALS, INC., priority 2011, published 2012).

Columns and labels:
patients with CP/CPPS = details: 10 mg once daily, versus placebo; cited from earlier work
[1] = Study SI06004: plasma pharmacokinetics of silodosin and metabolites, 8 mg once daily for 7 days; assay type: in vivo, human; details: for Tmax: 8 mg once daily, immediate-release
Method: FIG. 2 depicts the mean steady-state silodosin plasma concentration versus time profile in fed target-aged subjects after administering 8 mg silodosin QD (from Study SI06004).
This is illustrated in Table 1 and FIG. 2. Study SI06004 assessed the area under the plasma concentration time curve for silodosin and four of its metabolites, as well as safety and tolerability, following administration of 8 mg once daily for 7 days.

[2] = Study SI07004: silodosin pharmacokinetics after seven daily doses of 4 mg or 8 mg in healthy male subjects; assay type: in vivo, human; details: after 7 days of dosing; for AUC(0-t) / half-life / Cmax / Tmax: male, human, plasma
Description: FIG. 3 depicts the mean silodosin plasma concentration time profile by dose level and timepoint after multiple doses (from Study SI07004).

men with CP/CPPS [3] = test: 12-week double-blind placebo-controlled Phase II study (NCT00740779): efficacy (NIH-CPSI, SF-12, GRA); assay type: in vivo, human; details: for SF-12 mental component, adjusted mean difference versus placebo (95% CI) / SF-12 mental component, change from baseline, mean ± SD / SF-12 physical component, adjusted mean difference versus placebo (95% CI) / SF-12 physical component, change from baseline, mean ± SD: study end, ITT
Method: (§1) A 12-week, multicenter, double-blind, placebo-controlled, Phase II study (ClinicalTrials.gov identifier: NCT00740779) was conducted between September 2008 and October 2009. The protocol was approved by an Institutional Review Board before study initiation, and the study was conducted in accordance with the Declaration of Helsinki and the US Code of Federal Regulations. The primary end point was change from baseline to week 12 in the NIH—CPSI total score. Secondary end points included safety; change from baseline in NIH—CPSI pain, urinary, and HRQoL subscores; and change from baseline in SF-12 physical and mental component scores. In addition, responder analyses were conducted for the global response assessment (GRA) and NIH—CPSI at week 12.
Study participants were recruited from 32 centers across the United States, including mostly community-based practices and a few university medical centers. […] Patients were excluded if they had participated in a study of an investigational agent within the past 30 days, had experienced two or more urinary tract infections within the previous 12 months, or had medical conditions potentially precluding safe study participation or affecting study results, such as significant postural hypotension, abnormal test results of digital rectal examinations (except benign prostate enlargement), prostate-specific antigen >10.0 ng/mL, and liver or renal insufficiency. Patients treated with medications that might confound study results, such as α-blockers (for conditions other than CP/CPPS), 5α-reductase inhibitors, tricyclic antidepressants, androgens, and ketoconazole, had to undergo appropriate washout periods to be eligible.
(§2) Patients were randomized 1:1:1 to receive silodosin 4 mg, silodosin 8 mg, or placebo once daily with food at breakfast for 12 weeks. Two doses of silodosin were chosen to evaluate the dose dependency of treatment effects in patients with CP/CPPS. The maximum dose of silodosin 8 mg/d was selected based on its established safety and efficacy profile in patients with BPH.
(§3) Baseline parameters were assessed after a 4-week screening period. All efficacy assessments were made with self-administered patient surveys. Patients completed the NIH—CPSI and subscales, GRA scale, and pain medication usage surveys at baseline and at weeks 4, 8, and 12 of the study. SF-12 was completed at baseline and at study end (week 12 or time of discontinuation). Safety was monitored over the course of the study through adverse events reporting, clinical laboratory tests, and vital signs assessments.
(§4) All efficacy and safety data were summarized using descriptive statistics for continuous variables and frequency distributions for categorical variables. Efficacy end points were analyzed in the intent-to-treat (ITT) population, which consisted of all randomized patients with a baseline assessment for the NIH—CPSI total score. The primary efficacy variable and continuous secondary variables were analyzed for significance at α=0.05 (with Bonferroni correction for multiple comparisons) using analysis of covariance models with the baseline measurement of the efficacy variable as the covariate and effects of treatment. Because of the small number of patients in many participating centers, study center was not included in statistical analysis models. All analyses were conducted with SAS® v8.2 (SAS Institute Inc., Cary, N.C.). Last observation carried forward (LOCF) was used to impute missing values. […] GRA and NIH—CPSI responder analyses were done with chi-square tests at α=0.025 (two-sided) to account for multiple comparisons.

men with CP/CPPS [4] = test: 12-week Phase II study (NCT00740779): safety and tolerability (adverse events); assay type: in vivo, human
Method: as §1, §2, §3, §4

α1A receptor = target: T1, α1A receptor (Homo sapiens, UniProt P35348); details: cited from earlier work
T1 sequence (P35348 1-466): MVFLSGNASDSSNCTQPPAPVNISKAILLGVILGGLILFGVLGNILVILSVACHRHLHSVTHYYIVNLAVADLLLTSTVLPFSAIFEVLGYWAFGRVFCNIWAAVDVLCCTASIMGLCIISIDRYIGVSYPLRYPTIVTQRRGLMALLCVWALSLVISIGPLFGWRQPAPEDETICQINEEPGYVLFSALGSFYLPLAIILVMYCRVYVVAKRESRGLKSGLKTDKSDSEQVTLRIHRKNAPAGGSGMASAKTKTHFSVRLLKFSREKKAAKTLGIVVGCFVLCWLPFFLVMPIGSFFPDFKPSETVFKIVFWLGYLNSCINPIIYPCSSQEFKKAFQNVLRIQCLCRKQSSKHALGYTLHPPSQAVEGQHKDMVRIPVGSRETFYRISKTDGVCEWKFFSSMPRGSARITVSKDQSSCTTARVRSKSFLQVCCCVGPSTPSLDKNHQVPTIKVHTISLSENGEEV

[5] = 4 mg, Week 12 ET (early termination counted as nonresponse)
[6] = 8 mg once daily for 7 days, mean (SD)

COc1cc2nc(N(C)CCCNC(=O)C3CCCO3)nc(N)c2cc1OC (stereo not shown) [alfuzosin]
Reducing the symptoms of CP/CPPS (patients with CP/CPPS): not more effective than placebo

C[C@H](Cc1cc2c(c(C(N)=O)c1)N(CCCO)CC2)NCCOc1ccccc1OCC(F)(F)F [silodosin]
Tmax ([1]; human, plasma, oral, 8 mg, mean (SD), read-out: Tmax): ~2.6 h | AUC(0-t) ([1]; human, plasma, oral, 8 mg once daily for 7 days, mean (SD), read-out: AUC(0-24)): 373 ng·h/mL | Cmax ([1]; human, plasma, oral, 8 mg once daily for 7 days, mean (SD), read-out: Cmax): 61.6 ng/mL | half-life ([1]; human, plasma, oral, 8 mg once daily for 7 days, mean ± SD): 13.3 h | kel, median ([2]; 4 mg): 0.0489 h⁻¹ | kel, mean ([2]; 4 mg, n 19): 0.0552 h⁻¹ | kel, median ([2]; 8 mg): 0.0573 h⁻¹ | kel, mean ([2]; 8 mg, n 21): 0.0551 h⁻¹ | AUC(0-t) ([2]; 4 mg, N = 22, read-out: AUC [0-24], mean): 159 ng·h/mL | half-life ([2]; 4 mg, n 19, read-out: t½, mean (converted)): 15.3 h | AUC(0-t) ([2]; 4 mg, read-out: AUC [0-24], median): 156 ng·h/mL | Cmax ([2]; 4 mg, read-out: Cmax, mean): 28.4 ng/mL | Cmax ([2]; 4 mg, read-out: Cmax, median): 26.1 ng/mL | Tmax ([2]; 4 mg, read-out: Tmax, mean): 2.4 h | Tmax ([2]; 4 mg, read-out: Tmax, median): 2 h | half-life ([2]; 4 mg, read-out: t½, median (converted)): 14.2 h | AUC(0-t) ([2]; 8 mg, N = 22, read-out: AUC [0-24], mean): 297 ng·h/mL | half-life ([2]; 8 mg, n 21, read-out: t½, mean (converted)): 14.4 h | AUC(0-t) ([2]; 8 mg, read-out: AUC [0-24], median): 276 ng·h/mL | Cmax ([2]; 8 mg, read-out: Cmax, mean): 51.1 ng/mL | Cmax ([2]; 8 mg, read-out: Cmax, median): 50.3 ng/mL | Tmax ([2]; 8 mg, read-out: Tmax, mean): 2.5 h | Tmax ([2]; 8 mg, read-out: Tmax, median): 2 h | half-life ([2]; 8 mg, read-out: t½, median (converted)): 12.1 h | SF-12 mental component, adjusted mean difference versus placebo (95% CI) (men with CP/CPPS [3]; 4 mg once daily): 1.5 (−1.9, 4.9) | SF-12 mental component, change from baseline, mean ± SD (men with CP/CPPS [3]; 4 mg once daily): 3.2 ± 7.3 | SF-12 physical component, adjusted mean difference versus placebo (95% CI) (men with CP/CPPS [3]; 4 mg once daily): 3.0 (0.01, 6.0) | SF-12 physical component, change from baseline, mean ± SD (men with CP/CPPS [3]; 4 mg once daily): 4.2±8.1 | NIH-CPSI pain score, adjusted mean difference versus placebo (95% CI) (men with CP/CPPS [3]; 4 mg once daily, week 12, ITT): −1.6 (−3.4, 0.3) | NIH-CPSI pain score, change from baseline, mean ± SD (men with CP/CPPS [3]; 4 mg once daily, week 12, ITT): −5.9 ± 4.5 | NIH-CPSI quality-of-life impact score, adjusted mean difference versus placebo (95% CI) (men with CP/CPPS [3]; 4 mg once daily, week 12, ITT): −1.5 (−2.8, −0.3) | NIH-CPSI quality-of-life impact score, change from baseline, mean ± SD (men with CP/CPPS [3]; 4 mg once daily, week 12, ITT): −4.1 ± 3.1 | NIH-CPSI total score, change from baseline, mean ± SD (men with CP/CPPS [3]; 4 mg once daily, week 12, ITT): −12.1±9.3 | NIH-CPSI urinary symptoms score, adjusted mean difference versus placebo (95% CI) (men with CP/CPPS [3]; 4 mg once daily, week 12, ITT): −1.4 (−2.5, −0.3) | NIH-CPSI urinary symptoms score, change from baseline, mean ± SD (men with CP/CPPS [3]; 4 mg once daily, week 12, ITT): −2.2 ± 2.7 | GRA responders, patients (men with CP/CPPS [3]; [5]): 55.8% | NIH-CPSI responders, patients (men with CP/CPPS [3]; [5]): 59.6% | SF-12 mental component, adjusted mean difference versus placebo (95% CI) (men with CP/CPPS [3]; 8 mg once daily): −1.4 (−4.9, 2.1) | SF-12 mental component, change from baseline, mean ± SD (men with CP/CPPS [3]; 8 mg once daily): 0.5 ± 7.2 | SF-12 physical component, adjusted mean difference versus placebo (95% CI) (men with CP/CPPS [3]; 8 mg once daily): 2.7 (−0.4, 5.8) | SF-12 physical component, change from baseline, mean ± SD (men with CP/CPPS [3]; 8 mg once daily): 4.4 ± 7.0 | NIH-CPSI pain score, adjusted mean difference versus placebo (95% CI) (men with CP/CPPS [3]; 8 mg once daily, week 12, ITT): −0.5 (−2.4, 1.4) | NIH-CPSI pain score, change from baseline, mean ± SD (men with CP/CPPS [3]; 8 mg once daily, week 12, ITT): −4.9 ± 5.0 | NIH-CPSI quality-of-life impact score, adjusted mean difference versus placebo (95% CI) (men with CP/CPPS [3]; 8 mg once daily, week 12, ITT): −0.7 (−2.0, 0.5) | NIH-CPSI quality-of-life impact score, change from baseline, mean ± SD (men with CP/CPPS [3]; 8 mg once daily, week 12, ITT): −3.5 ± 3.0 | NIH-CPSI urinary symptoms score, adjusted mean difference versus placebo (95% CI) (men with CP/CPPS [3]; 8 mg once daily, week 12, ITT): −0.8 (−1.9, 0.3) | NIH-CPSI urinary symptoms score, change from baseline, mean ± SD (men with CP/CPPS [3]; 8 mg once daily, week 12, ITT): −1.8 ± 2.4 | NIH-CPSI responders, patients (men with CP/CPPS [3]; 8 mg, Week 12 ET (early termination counted as nonresponse)): 46.7% | Drug-related adverse events leading to discontinuation, all (men with CP/CPPS [4]; 4 mg): 3 n | Drug-related adverse events leading to discontinuation: RE/libido decreased (men with CP/CPPS [4]; 4 mg): 1 n | Drug-related adverse events leading to discontinuation: ejaculation failure (men with CP/CPPS [4]; 4 mg): 1 n | Drug-related adverse events leading to discontinuation: rash (men with CP/CPPS [4]; 4 mg): 1 n | Patients who discontinued study participation because of a drug-related adverse event (men with CP/CPPS [4]; 4 mg): 5.8% | Drug-related adverse event: Headache, patients (men with CP/CPPS [4]; 4 mg, safety population (n = 52)): 0 n | Patients who experienced serious adverse events (men with CP/CPPS [4]; 4 mg, not considered drug-related by the investigator (severe urosepsis; moderate syncope)): Two | Drug-related adverse events leading to discontinuation, all (men with CP/CPPS [4]; 8 mg): 6 n | Drug-related adverse events leading to discontinuation: RE (men with CP/CPPS [4]; 8 mg): 4 n | Drug-related adverse events leading to discontinuation: nasal congestion (men with CP/CPPS [4]; 8 mg): 2 n | Patients who discontinued study participation because of a drug-related adverse event (men with CP/CPPS [4]; 8 mg): 13.3% | Selectivity for the α1A receptor relative to α1B and α1D receptors (α1A receptor): high selectivity

C[C@H](Cc1cc2c(c(C(N)=O)c1)N(CCC(=O)O)CC2)NCCOc1ccccc1OCC(F)(F)F [compound 3293]
AUC(0-24) [1, 6]: 373.0 (141.72) ng * hr/mL | Cmax [1, 6]: 34.3 (12.58) ng/mL | Tmax ([1]; mean (SD)): 4.1 (1.29) hr

C[C@H](Cc1cc2c(c(C(N)=O)c1)N(CCCO[C@@H]1O[C@H](C(=O)O)[C@@H](O)[C@H](O)[C@H]1O)CC2)NCCOc1ccccc1OCC(F)(F)F [3213G]
AUC(0-24) [1, 6]: 1660.5 (647.23) ng * hr/mL | Cmax [1, 6]: 102.4 (36.51) ng/mL | Tmax ([1]; mean (SD)): 5.5 (2.29) hr
